These results are taken from PubChem BioAssay (NCI).

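Grown in 96-well plates, cells were treated for 48 hours with each compound at five concentrations. Insufficient inhibition: endpoint recorded as highest concentration tested. TGI denotes the concentration required for complete inhibition of growth.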

Test systems include OVCAR-8 ovarian; NCI/ADR-RES ovarian; IGROV1 ovarian; SF-295 CNS; HOP-62 NSCLC; RXF 393 renal; HCT-116 colon; SK-MEL-5 melanoma; MDA-N; RPMI-8226 leukemia; OVCAR-4 ovarian.
Assay in all cases: NCI tumour cell line growth inhibition, 48 h

Regarding `O=C1CC2(CCC(O)(c3cccs3)C(C(=O)c3cccs3)C2)C(=O)c2ccccc2N1` (centres undefined), the TGI in the experiment on OVCAR-8 ovarian, in the experiment on NCI/ADR-RES ovarian, in the experiment on IGROV1 ovarian, in the experiment with SF-295 CNS, in the experiment with HOP-62 NSCLC and with RXF 393 renal was > 100 µM in each case. Also, the TGI in the experiment on HCT-116 colon, with SK-MEL-5 melanoma and in the experiment on MDA-N was > 100 µM throughout.
As to `C1=CC(=[N+]2N=C(c3ccccc3)CC2c2ccccc2)C=CC1=C1SC(c2ccccc2)(c2ccccc2)c2ccccc21` (centres undefined), the TGI in the experiment with OVCAR-8 ovarian, with NCI/ADR-RES ovarian, in the experiment with IGROV1 ovarian, in the experiment with SF-295 CNS, with HOP-62 NSCLC and in the experiment on RXF 393 renal was > 100 µM each time. The TGI with HCT-116 colon, with SK-MEL-5 melanoma and in the experiment on MDA-N was > 100 µM each time.
In the case of `N#Cc1c(N)nc2c(c1-c1ccc(Br)cc1)CSc1ccccc1-2`, the TGI in the experiment with OVCAR-8 ovarian was > 100 µM; with NCI/ADR-RES ovarian, > 100 µM; with IGROV1 ovarian, > 100 µM; with HOP-62 NSCLC, > 100 µM; in the experiment with RXF 393 renal, 73.8 µM; in the experiment with RPMI-8226 leukemia, 61.1 µM. In addition, the TGI with OVCAR-4 ovarian, in the experiment with HCT-116 colon, with SK-MEL-5 melanoma and in the experiment with MDA-N was > 100 µM throughout.
In the case of `Nc1ccc(Oc2ccc(C34CC5CC(C3)CC(c3ccc(Oc6ccc(N)cc6)cc3)(C5)C4)cc2)cc1`, the TGI with OVCAR-8 ovarian was 23.6 µM; with NCI/ADR-RES ovarian it was > 60.4 µM; in the experiment on IGROV1 ovarian, 15.4 µM; in the experiment on SF-295 CNS, > 56.4 µM; in the experiment with HOP-62 NSCLC, > 56.7 µM; with RXF 393 renal, > 51.9 µM. Moreover, the TGI in the experiment with RPMI-8226 leukemia was > 100 µM; in the experiment on OVCAR-4 ovarian it was 51.2 µM; in the experiment with HCT-116 colon it was > 44.8 µM; with SK-MEL-5 melanoma, 26.2 µM; in the experiment with MDA-N it was > 45.1 µM.
In the case of `CCOC(=O)C(=O)NCCCN1CCOCC1`, the TGI with OVCAR-8 ovarian, in the experiment on IGROV1 ovarian, with SF-295 CNS, with HOP-62 NSCLC, in the experiment on RXF 393 renal and with OVCAR-4 ovarian was > 100 µM in each case. Moreover, the TGI in the experiment on HCT-116 colon and with SK-MEL-5 melanoma was > 100 µM each time.
Consider `O=c1c2ccccc2[nH]c(=S)n1-c1ccc(N=Nc2cccc3cc(O)ccc23)cc1`, for which the TGI with OVCAR-8 ovarian, in the experiment with NCI/ADR-RES ovarian, in the experiment on IGROV1 ovarian, in the experiment on SF-295 CNS, in the experiment on HOP-62 NSCLC and in the experiment with RXF 393 renal was > 100 µM throughout. In addition, the TGI in the experiment on RPMI-8226 leukemia, in the experiment with OVCAR-4 ovarian, in the experiment with HCT-116 colon, in the experiment with SK-MEL-5 melanoma and in the experiment on MDA-N was > 100 µM in each case.
Regarding `O=[N+]([O-])c1ccc2c(c1)nc(Cc1ccc(Cl)cc1)n2C[C@@H]1CCCN2CCCCC12` (some centres undefined), the TGI in the experiment on OVCAR-8 ovarian was 30.4 µM; in the experiment with NCI/ADR-RES ovarian it was 30.2 µM; in the experiment on IGROV1 ovarian it was 26.7 µM; with SF-295 CNS, 29.3 µM; with HOP-62 NSCLC, 48.9 µM; with RXF 393 renal, 25.3 µM. The TGI in the experiment with RPMI-8226 leukemia is > 100 µM; in the experiment with OVCAR-4 ovarian it was > 44 µM; with HCT-116 colon, 23.3 µM; in the experiment on SK-MEL-5 melanoma, 29.5 µM; with MDA-N, 25.9 µM.
As to `Cc1cc(=O)[nH]c(/N=C(\N)Nc2ccc(Cl)cc2)n1`, the TGI with OVCAR-8 ovarian, in the experiment with NCI/ADR-RES ovarian, with IGROV1 ovarian, in the experiment with SF-295 CNS, in the experiment on HOP-62 NSCLC and with RXF 393 renal was > 100 µM throughout. Besides, the TGI with RPMI-8226 leukemia, with HCT-116 colon, in the experiment with SK-MEL-5 melanoma and in the experiment with MDA-N was > 100 µM in each case.
`O=c1[nH]c(Nc2ccc(Cl)cc2)nc2nc[nH]c12`: the TGI in the experiment on OVCAR-8 ovarian, with NCI/ADR-RES ovarian, with IGROV1 ovarian, with SF-295 CNS, with HOP-62 NSCLC and with RPMI-8226 leukemia was > 100 µM in each case. The TGI with OVCAR-4 ovarian, in the experiment on HCT-116 colon and with SK-MEL-5 melanoma was > 100 µM throughout.
Regarding `COC(=O)C1=C(O)CCCC(CCC(C)=O)=C1`, the TGI with OVCAR-8 ovarian, in the experiment with NCI/ADR-RES ovarian, with IGROV1 ovarian, in the experiment with SF-295 CNS, in the experiment on RXF 393 renal and in the experiment on RPMI-8226 leukemia was > 100 µM each time. Also, the TGI in the experiment with OVCAR-4 ovarian was > 100 µM; with HCT-116 colon, 36.1 µM; in the experiment with SK-MEL-5 melanoma, > 100 µM; in the experiment with MDA-N, > 100 µM.
`COc1ccc(C2c3cc4c(cc3OC(O)(CO)C2C(=O)O)OCO4)cc1` (centres undefined) (tested in a mixture with another compound): the TGI in the experiment with OVCAR-8 ovarian was 48.5 µM; with IGROV1 ovarian, 43.5 µM; with SF-295 CNS it was 57.3 µM; with HOP-62 NSCLC, > 100 µM; with RXF 393 renal, 34.7 µM; in the experiment on RPMI-8226 leukemia, 49.5 µM. For the same compound, the TGI is > 100 µM in the experiment on OVCAR-4 ovarian, 33.1 µM in the experiment with HCT-116 colon and 39.5 µM in the experiment with SK-MEL-5 melanoma.
With `O=S(=O)(O)c1cc(N=[N+]([O-])c2cc(S(=O)(=O)O)c3ccccc3c2)cc2ccccc12`, the TGI with OVCAR-8 ovarian, in the experiment on NCI/ADR-RES ovarian, in the experiment on IGROV1 ovarian, with SF-295 CNS, in the experiment on HOP-62 NSCLC and in the experiment with RXF 393 renal was > 100 µM throughout. Besides, the TGI was > 100 µM with RPMI-8226 leukemia; 38.2 µM in the experiment on OVCAR-4 ovarian; > 100 µM with HCT-116 colon; 32.8 µM in the experiment with SK-MEL-5 melanoma; 41.7 µM in the experiment on MDA-N.
For the compound `COC(CN(C=O)[C@@H](c1ccc(Cl)cc1)c1cc2ccccc2o1)OC`, the TGI in the experiment on OVCAR-8 ovarian worked out at 31.3 µM; in the experiment on NCI/ADR-RES ovarian, 41.9 µM; in the experiment on IGROV1 ovarian, 30.7 µM; in the experiment with SF-295 CNS, 31 µM; in the experiment with HOP-62 NSCLC, 43.5 µM; with RXF 393 renal, 28.4 µM. Further, the TGI came out at 35.3 µM with RPMI-8226 leukemia; 40 µM in the experiment on OVCAR-4 ovarian; 32.9 µM with HCT-116 colon; 28.9 µM in the experiment with SK-MEL-5 melanoma; 31.6 µM with MDA-N.
